Test results published in EP2440567B1, “SUBSTITUTED 16,17-ANNELLATED STEROID COMPOUNDS FOR USE IN WOMEN'S HEALTHCARE” (priority 2009, dated 2010).

Assays:
endometrium = assay: 4-week phase I study, endometrial biopsies histopathology; assay type: in vivo; conditions: female human volunteers; biopsies on day 29; exposure via oral 10 mg daily Org 41621
ovulation = assay: Ovulation inhibition in intact cycling female rats; assay type: in vivo
[1] = system: circulating levels of LH and FSH; assay: 4-week multiple dose study in ovariectomized female rats; assay type: in vivo, rat
vaginal tissue = assay: Allen-Doisy test; assay type: in vivo
bone = assay: AOST BMD (bone mineral density); assay type: in vivo
[2] = system: estrogen receptors in the CNS; assay: Lordosis model (facilitation of female sexual behaviour); assay type: in vivo
pregnant rats = assay: Embryofetal toxicity study in pregnant rats; assay type: in vivo, rat

SMILES	Histopathology scores of endometrial biopsies (endometrium)	signs of hyperplasia (endometrium) (endometrium)	Ovulation Inhibition (rat) MAD p.o. (ovulation)	suppression of circulating levels of LH and FSH ([1]; 4-week multiple dose, oral and subcutaneous application in gelatine/mannitol)	behaviour on vaginal tissue, cholesterol metabolism and bone (bone mineral density, circulating osteocalcin) ([1]; same series of studies)	Allen-Doisy (rat) MAD p.o. (vaginal tissue)	AOST BMD (rat) MAD p.o. (bone)	Lordosis (rat) MAD p.o. [2]	minor defects, incidence of wavy ribs (pregnant rats; pregnant rats, oral gavage, 0.1 mg/kg)	body weight gain of the dams (pregnant rats; pregnant rats, oral gavage, 0.1 mg/kg/day up to and including 10 mg/kg/day)	effects (fetal defects) (pregnant rats; pregnant rats, oral gavage, 0.3 mg/kg, based on a total of 13 fetuses)	major defects (fetuses) (pregnant rats; pregnant rats, oral gavage, treated groups)	teratogenicity in the rat (pregnant rats; preliminary embryofetal development study, up to a dose of 0.3 mg/kg)	major fetal abnormalities (ribs, humerus and scapula) (pregnant rats; pregnant rats, oral gavage, 0.09 mg/kg)	major fetal abnormalities (ribs, humerus and scapula) (pregnant rats; pregnant rats, oral gavage, 0.15 mg/kg)
CCC[C@@H]1Cc2cc(O)ccc2[C@H]2CC[C@@]3(C)[C@@H](C[C@H]4CCC(=O)C[C@]43O)[C@H]12 [Compound 10, (7α,16β,17α)-3,17-dihydroxy-7-propyl-16,24-cyclo-19,21-dinorchola-1,3,5(10)-trien-22-one]	mostly atrophic or inactive endometrium with some subjects showing conversion to secretory (P-type) endometrium	no signs of hyperplasia	0.10 mg/kg.day	effectively suppress	behaves as an estrogen receptor agonist	0.15 mg/kg.day	0.12 mg/kg.day	0.14 mg/kg.day	4/153	significant reduction in body weight gain	No effects	No major defects	no evidence of teratogenicity	–	–
C#C[C@]1(O)CC[C@H]2[C@@H]3CCc4cc(O)ccc4[C@H]3CC[C@@]21C [EE, Ethynyl-Estradiol, reference compound]	–	–	0.022 mg/kg.day	–	–	0.016 mg/kg.day	0.020 mg/kg.day	0.035 mg/kg.day	–	–	–	–	–	–	–
CCC[C@@H]1Cc2cc(O)ccc2[C@H]2CC[C@@]3(C)[C@@H](C[C@H]4CC[C@H](O)C[C@]43O)[C@H]12 [Org 41621, (7α,16β,17α,22β)-7-propyl-16,24-cyclo-19,21-dinorchola-1,3,5(10)-triene-3,17,22-triol, reference compound]	–	–	–	–	–	–	–	–	–	–	–	–	–	3/273	11/216
